Laboratory results: patent publication US11351215B2, “Composition for preventing hair loss and stimulating hair-growth” (MOTHER″S PHARMACEUTICAL CO., LTD., priority 2018, dated 2022)
Values joined by “and” are separate entries in the source; they are usually repeats but may differ in a detail not shown here. Equal values may be shown once.

How the values were obtained:
Format in all cases: in vivo, mouse
[1] = system: male C57BL/6 mice; assay: Hair-growth efficacy test in catagen inhibition animal model, visual inspection, Centipeda minima extracts (Example 2-1); conditions: Day 5 after 7 days of administration (+12 day); topical 100 μL twice a day; dexamethasone-induced catagen
Source text: (§1) To proceed with the hair-growth efficacy test in the catagen inhibition animal model of Centipeda minima extract, male C57BL/6 mice (5 weeks of age) were purchased and subjected to acclimation for 1 week and selected animals weighing 20 to 24 g. In the case of an animal in which skin damage occurred during hair removal, or if the skin color was black, the growth period was already in progress, so it was inappropriate for this experiment and was excluded from the experiment.
The test group was divided into a normal group, a negative control group, a test substance-administered group, and a positive control groups 1 and 2. The normal group had three mice, the negative control group had 4 mice, the test substance-administered group had 4 mice, and the positive control group 1 (Tofacitinib) had four mice, and the positive control group 2 (Minoxidil) had four mice. […]
Further, to quantify the results of hair-growth efficacy visual inspection, a black portion (anagen) or a region where hair-growth begins in the entire hair removal site (solvent or test substance, positive control substance application site) was visually observed. […]

[2] = system: male C57BL/6 mice; assay: Skin tissue pathology test, H&E staining (Example 2-2); conditions: H&E stained skin tissue, day 12
Method: (§2) The skin tissue pathology test was conducted on day 12 by H&E staining using Hematoxylin and Eosin, which are widely used. A sample was collected from the skin tissue of the sacrificed animals and the generation of hair follicles and phenomena of hair-growth were identified through fixation, washing, clearing, paraffin infiltration, embedding, microtome cutting, staining and reading processes.

[3] = system: male C57BL/6 mice; assay: Hair-growth efficacy test in catagen inhibition animal model, visual inspection with image analysis (Example 1-1); conditions: values of individual mice
Source text: as §1, with “16” for “20”, “21” for “24”
The test group was divided into a normal group, a negative control group, a test substance-administered group, and a positive control groups 1 and 2. Each of the normal group and the negative control group had 1 mouse, the test substance-administered group had 3 mice, and the positive control group 1 had two mice, and the positive control group 2 had one mouse. […]
Further, in order to quantify the results of hair-growth efficacy visual inspection, image analysis was performed on the entire epilation site (solvent or test substance, positive control substance application site) that is black (anagen) or a site where hair-growth begins. […] The result was quantified in %. […]

[4] = system: male C57BL/6 mice; assay: Skin tissue pathology test, H&E staining (Example 1-2); conditions: H&E stained skin tissue after end of experiment
Method: as §2, with “conducted” for “conducted on day 12”, “generally used widely.” for “widely used.”
In this study, Anagen_Early (A/e) indicates the state in which hair has just begun to develop and Anagen_late (A/l) and Catagen_early (C/e) indicate that hair-growth is in full swing. Anagen_late and Catagen_early have histologically similar positions of the hair bulb. When considering morphological changes according to tissue sections, it is necessary to consider that it is often unclear to distinguish there between. Nevertheless, the hair follicles in the Anagen_late and Catagen_early stages are generally considered as similar stages of development, and the results are interpreted.

Molecule: C[C@@H]1CCN(C(=O)CC#N)C[C@@H]1N(C)c1ncnc2[nH]ccc12 [Tofacitinib]
- Hair-growth efficacy (%) [1]: 25%
- hair follicle generation and hair-growth efficacy (skin histology, FIG. 9) [2]: only minimal hair follicle generation and hair-growth efficacy degree

Molecule: 6-amino-1,2-dihydro-1-hydroxy-2-imino-4-phenoxypyrimidine [Minoxidil]
- hair-growth efficacy (image analysis of epilation site) ([3]; Day 17 after administration, 0.1% dexamethasone to maintain catagen): 6.1% and 21.2%
- tendency to migrate to anagen (black/hair-growth area of epilation site, image analysis) ([3]; on 3 days of administration, topical 100 μL twice a day, dexamethasone-induced catagen): 0.1% and 0.3%
- hair follicle generation and hair-growth efficacy (skin histology, FIG. 5) [4]: only minimal hair follicle generation and hair-growth efficacy degree
- Hair-growth efficacy (%) [1]: 45%
- hair follicle generation and hair-growth efficacy (skin histology, FIG. 9) [2]: only minimal hair follicle generation and hair-growth efficacy degree
